Test results published in article PMC6412895, “Synthesis, Characterization, and Biological Activity of a Novel Series of Benzo[4,5]imidazo[2,1-b]thiazole Derivatives as Potential Epidermal Growth Factor Receptor Inhibitors” (Molecules, 2019).
pIC50: −log10 of the molar value.

Experiments:
HeLa cells = test: MTT anti-proliferative assay, HeLa; type: cell-based, human; details: 24 h incubation, EGFR high-expressed cell line
Method: (§1) The inhibitory activities of all target compounds against the cervical cancer cell line HeLa, human liver cancer cell line HepG2, human liver cell line HL7702, and human umbilical vein endothelial cell line HUVEC were determined by the 3-(4,5-dimethylthiazol-2-yl)-2,5-diphenyltetrazolium bromide (MTT) assay. As known, the EGFR level of the HeLa cells was highly expressed, while that of the HepG2 cells was low, and the HL7702 cells and HUVEC cells were human normal cells.
(§2) The human cancer cell lines (HeLa and HepG2) and the human normal ones (HL7702 and HUVEC) were chosen to evaluate the antitumor activity and cell toxicity of target compounds in vitro by the MTT assay. HeLa, HepG2, and HUVEC cells were cultured in a Dulbecco’s modified Eagle’s medium (DMEM) supplemented with 10% fetal bovine serum, and HL7702 cells were cultured in a DMEM supplemented with 10% fetal bovine serum. Cells were grown to 80–90% confluence and subjected to no more than 20 cell passages and were left to acclimatize for 24 h before any treatments. The cells were seeded into 96-well plates (8 * 10^4 cells/mL) and incubated at 37 °C in a humidified atmosphere containing 5% CO2 overnight. After 24 h, the cancer cells were treated with the target compounds at 100, 50, 25, 12.5, 6.25, 3.13, and 1.56 μmol/L; the human normal cells HL7702 were treated with 200 and 100 μmol/L of the target ones; and the HUVEC were treated with 100 and 50 μmol/L of the target compounds. After 24 h of incubation, MTT (5 mg/mL) was subsequently added and incubated for 4 h. Next, the culture medium was cleared, and the crystals were dissolved in DMSO. The optical densities (OD) at 490 nm were measured on a universal microplate reader (Bio-Tek instruments, Inc., EL × 800). Inhibitory effects were expressed as the percentage of IC50 value.

HUVEC cells = test: MTT cell toxicity assay, HUVEC; type: cell-based; details: 24 h incubation, human normal cells
Method: as §1, §2

HepG2 cells = test: MTT anti-proliferative assay, HepG2; type: cell-based, human; details: EGFR low-expressed cell line
Method: as §1, §2

HL7702 cells = test: MTT cell toxicity assay, HL7702 normal liver cells; type: cell-based; details: human normal liver cell line
Method: as §1, §2

EGFR kinase = EGFR kinase (Homo sapiens, UniProt P00533); test: EGFR kinase assay (Kinase-Glo Plus luminescence); type: biochemical; details: 10 µM ATP, 30 °C, 40 minutes
Method: The EGFR kinase assays of the target compounds were performed by the intrinsic ATPase activity luminescence assay. All the enzymatic reactions were conducted at 30 °C for 40 minutes. The 50 µL reaction mixture contained 40 mM Tris, pH 7.4, 10 mM MgCl2, 0.1 mg/mL BSA, 1 mM DTT, 10 µM adenosine triphosphate (ATP), 0.2 ug/mL PI3 Kinase, and 100 µM lipid substrate. The compounds were diluted in 10% DMSO and 5 µL of the dilution was added to a 50 µL reaction so that the final concentration of DMSO was 1% in all the reactions. The assay was performed using the Kinase-Glo Plus luminescence kinase assay kit, which measures the kinase activity by quantifying the amount of ATP remaining in solution following a kinase reaction. The luminescent signal from the assay was correlated with the amount of ATP present and was inversely correlated with the amount of kinase activity. The IC50 values were calculated using nonlinear regression with a normalized dose−response fit using the Prism GraphPad software (version 6.0, GraphPad Software, San Diego, CA, USA).

[1] = Homo sapiens, HepG2, 24 h incubation

Sequence of EGFR kinase (P00533 669-1210 limits assumed): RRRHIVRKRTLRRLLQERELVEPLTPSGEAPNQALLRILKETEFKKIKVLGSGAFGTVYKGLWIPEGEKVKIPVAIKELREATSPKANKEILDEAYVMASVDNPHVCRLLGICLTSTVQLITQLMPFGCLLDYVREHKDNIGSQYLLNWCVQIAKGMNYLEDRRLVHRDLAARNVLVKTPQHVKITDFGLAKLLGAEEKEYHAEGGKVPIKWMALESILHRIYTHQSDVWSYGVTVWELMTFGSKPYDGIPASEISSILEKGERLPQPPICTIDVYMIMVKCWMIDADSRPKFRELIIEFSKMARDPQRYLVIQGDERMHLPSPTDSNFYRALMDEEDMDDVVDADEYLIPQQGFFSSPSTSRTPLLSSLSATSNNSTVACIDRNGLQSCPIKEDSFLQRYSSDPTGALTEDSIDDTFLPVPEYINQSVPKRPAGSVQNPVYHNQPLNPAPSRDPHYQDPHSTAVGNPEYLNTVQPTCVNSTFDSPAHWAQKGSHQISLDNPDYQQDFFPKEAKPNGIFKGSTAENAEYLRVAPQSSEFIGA

| Molecule | pIC50 (HeLa cells; Homo sapiens, HeLa) | pIC50 (HUVEC cells; HUVEC) | melting point | pIC50 (HepG2 cells; [1]) | pIC50 (HL7702 cells; L02, 24 h incubation) | pIC50 (EGFR kinase) | pIC50 (HeLa cells) | pIC50 (HUVEC cells) | pIC50 (HepG2 cells; 24 h incubation) | pIC50 (HL7702 cells; 24 h incubation) |
| --- | --- | --- | --- | --- | --- | --- | --- | --- | --- | --- |
| O=C(Cc1csc2nc3ccccc3n12)Nc1ccc(Cl)c(C(F)(F)F)c1 [Compound D10, 2-(Benzo[4,5]imidazo[2,1-b]thiazol-3-yl)-N-(4-chloro-3-(trifluoromethyl)phenyl)acetamide] | < 4.00 | < 4.00 | 153 to 155 °C | < 4.00 | < 3.70 |  |  |  |  |  |
| Cc1ccccc1NC(=O)Cc1csc2nc3ccccc3n12 [Compound D15, 2-(Benzo[4,5]imidazo[2,1-b]thiazol-3-yl)-N-(2-methylphenyl)acetamide] | < 4.00 | < 4.00 | 83 to 85 °C | < 4.00 | < 3.70 |  |  |  |  |  |
| O=C(Cc1csc2nc3ccccc3n12)Nc1cccc(O)c1 [Compound D03, 2-(Benzo[4,5]imidazo[2,1-b]thiazol-3-yl)-N-(3-hydroxyphenyl)acetamide] | < 4.00 | < 4.00 | 111 to 113 °C | < 4.00 | < 3.70 |  |  |  |  |  |
| O=C(Cc1csc2nc3ccccc3n12)Nc1cc(F)cc(F)c1 [Compound D16, 2-(Benzo[4,5]imidazo[2,1-b]thiazol-3-yl)-N-(3,5-difluorophenyl)acetamide] | 4.49 | < 4.00 | 101 to 103 °C | < 4.00 | < 3.70 |  |  |  |  |  |
| O=C(Cc1csc2nc3ccccc3n12)Nc1ccccc1O [Compound D04, 2-(Benzo[4,5]imidazo[2,1-b]thiazol-3-yl)-N-(2-hydroxyphenyl)acetamide] | 6.38 | < 4.00 | 121 to 123 °C | < 4.00 | < 3.70 | 7.26 |  |  |  |  |
| O=C(Cc1csc2nc3ccccc3n12)Nc1ccc(Cl)cc1Cl [Compound D17, 2-(Benzo[4,5]imidazo[2,1-b]thiazol-3-yl)-N-(2,4-dichlorophenyl)acetamide] | < 4.00 | < 4.00 | 206 to 208 °C | < 4.00 | < 3.70 |  |  |  |  |  |
| O=C(Cc1csc2nc3ccccc3n12)Nc1ccc([N+](=O)[O-])cc1 [Compound D07, 2-(Benzo[4,5]imidazo[2,1-b]thiazol-3-yl)-N-(4-nitrophenyl)acetamide] | < 4.00 | < 4.00 | 99 to 101 °C | < 4.00 | < 3.70 |  |  |  |  |  |
| O=C(Cc1csc2nc3ccccc3n12)Nc1ccccc1 [Compound D01, 2-(Benzo[4,5]imidazo[2,1-b]thiazol-3-yl)-N-phenylacetamide] | < 4.00 | < 4.00 | 123 to 125 °C | < 4.00 | < 3.70 |  |  |  |  |  |
| C=CCOc1ccc(NC(=O)Cc2csc3nc4ccccc4n23)cc1 [Compound D05, N-(4-(Allyloxy)phenyl)-2-(benzo[4,5]imidazo[2,1-b]thiazol-3-yl)acetamide] | < 4.00 | < 4.00 | 196 to 198 °C | < 4.00 | < 3.70 |  |  |  |  |  |
| O=C(Cc1csc2nc3ccccc3n12)Nc1ccc(O)cc1 [Compound D02, 2-(Benzo[4,5]imidazo[2,1-b]thiazol-3-yl)-N-(4-hydroxyphenyl)acetamide] | < 4.00 | < 4.00 | 101 to 103 °C | < 4.00 | < 3.70 |  |  |  |  |  |
| 2-(Benzo[4,5]imidazo[2,1-b]thiazol-3-yl)-N-(4-(benzyloxy)phenyl)acetamide [Compound D12] |  |  |  |  |  |  | < 4.00 | < 4.00 | < 4.00 | < 3.70 |
| O=C(Cc1csc2nc3ccccc3n12)Nc1ccc(Br)cc1 [Compound D14, 2-(Benzo[4,5]imidazo[2,1-b]thiazol-3-yl)-N-(4-bromophenyl)acetamide] | < 4.00 | < 4.00 | 107 to 109 °C | < 4.00 | < 3.70 |  |  |  |  |  |
| O=C(Cc1csc2nc3ccccc3n12)Nc1ccc(F)c(Br)c1 [Compound D13, 2-(Benzo[4,5]imidazo[2,1-b]thiazol-3-yl)-N-(3-bromo-4-fluorophenyl)acetamide] | < 4.00 | < 4.00 | 218 to 220 °C | < 4.00 | < 3.70 |  |  |  |  |  |
| 2-(Benzo[4,5]imidazo[2,1-b]thiazol-3-yl)-N-(4-(trifluoromethyl)phenyl)acetamide [Compound D18] |  |  |  |  |  |  | 4.36 |  |  |  |
| O=C(Cc1csc2nc3ccccc3n12)Nc1cccc2ccccc12 [Compound D08, 2-(Benzo[4,5]imidazo[2,1-b]thiazol-3-yl)-N-(naphthalen-1-yl)acetamide] | 5.60 | < 4.00 | 136 to 138 °C | < 4.00 | < 3.70 | 7.05 |  |  |  |  |
| O=C(Cc1csc2nc3ccccc3n12)Nc1ccc(Cl)cc1 [Compound D09, 2-(Benzo[4,5]imidazo[2,1-b]thiazol-3-yl)-N-(4-chlorophenyl)acetamide] | 4.85 | < 4.00 | 151 to 153 °C | < 4.00 | < 3.70 | 7.00 |  |  |  |  |
| O=C(Cc1csc2nc3ccccc3n12)Nc1ccc(Br)c(F)c1 [Compound D11, 2-(Benzo[4,5]imidazo[2,1-b]thiazol-3-yl)-N-(4-bromo-3-fluorophenyl)acetamide] | < 4.00 | < 4.00 | 151 to 153 °C | < 4.00 | < 3.70 |  |  |  |  |  |
| O=C(Cc1csc2nc3ccccc3n12)Nc1cccc([N+](=O)[O-])c1 [Compound D06, 2-(Benzo[4,5]imidazo[2,1-b]thiazol-3-yl)-N-(3-nitrophenyl)acetamide] | < 4.00 | < 4.00 | 132 to 134 °C | < 4.00 | < 3.70 |  |  |  |  |  |
